Test results as given in ChEMBL document CHEMBL1154652, “N-(4-(6,7-Disubstituted-quinolin-4-yloxy)-3-fluorophenyl)-2-oxo-3-phenylimidazolidine-1-carboxamides: a novel series of dual c-Met/VEGFR2 receptor tyrosine kinase inhibitors” (Bioorg Med Chem Lett, 2009).
Blank lines part the entries; values can stand above or below the molecule they belong to. Active and inactive are the calls of the source. The calls are words filed in the database; no cut-off is given here.

Assays:
[1] = biological target: T1, Hepatocyte growth factor receptor (Homo sapiens, UniProt P08581); test: Inhibition of GST-tagged c-Met expressed in Sf9 cells
Target sequence in this assay (P08581 whole entry): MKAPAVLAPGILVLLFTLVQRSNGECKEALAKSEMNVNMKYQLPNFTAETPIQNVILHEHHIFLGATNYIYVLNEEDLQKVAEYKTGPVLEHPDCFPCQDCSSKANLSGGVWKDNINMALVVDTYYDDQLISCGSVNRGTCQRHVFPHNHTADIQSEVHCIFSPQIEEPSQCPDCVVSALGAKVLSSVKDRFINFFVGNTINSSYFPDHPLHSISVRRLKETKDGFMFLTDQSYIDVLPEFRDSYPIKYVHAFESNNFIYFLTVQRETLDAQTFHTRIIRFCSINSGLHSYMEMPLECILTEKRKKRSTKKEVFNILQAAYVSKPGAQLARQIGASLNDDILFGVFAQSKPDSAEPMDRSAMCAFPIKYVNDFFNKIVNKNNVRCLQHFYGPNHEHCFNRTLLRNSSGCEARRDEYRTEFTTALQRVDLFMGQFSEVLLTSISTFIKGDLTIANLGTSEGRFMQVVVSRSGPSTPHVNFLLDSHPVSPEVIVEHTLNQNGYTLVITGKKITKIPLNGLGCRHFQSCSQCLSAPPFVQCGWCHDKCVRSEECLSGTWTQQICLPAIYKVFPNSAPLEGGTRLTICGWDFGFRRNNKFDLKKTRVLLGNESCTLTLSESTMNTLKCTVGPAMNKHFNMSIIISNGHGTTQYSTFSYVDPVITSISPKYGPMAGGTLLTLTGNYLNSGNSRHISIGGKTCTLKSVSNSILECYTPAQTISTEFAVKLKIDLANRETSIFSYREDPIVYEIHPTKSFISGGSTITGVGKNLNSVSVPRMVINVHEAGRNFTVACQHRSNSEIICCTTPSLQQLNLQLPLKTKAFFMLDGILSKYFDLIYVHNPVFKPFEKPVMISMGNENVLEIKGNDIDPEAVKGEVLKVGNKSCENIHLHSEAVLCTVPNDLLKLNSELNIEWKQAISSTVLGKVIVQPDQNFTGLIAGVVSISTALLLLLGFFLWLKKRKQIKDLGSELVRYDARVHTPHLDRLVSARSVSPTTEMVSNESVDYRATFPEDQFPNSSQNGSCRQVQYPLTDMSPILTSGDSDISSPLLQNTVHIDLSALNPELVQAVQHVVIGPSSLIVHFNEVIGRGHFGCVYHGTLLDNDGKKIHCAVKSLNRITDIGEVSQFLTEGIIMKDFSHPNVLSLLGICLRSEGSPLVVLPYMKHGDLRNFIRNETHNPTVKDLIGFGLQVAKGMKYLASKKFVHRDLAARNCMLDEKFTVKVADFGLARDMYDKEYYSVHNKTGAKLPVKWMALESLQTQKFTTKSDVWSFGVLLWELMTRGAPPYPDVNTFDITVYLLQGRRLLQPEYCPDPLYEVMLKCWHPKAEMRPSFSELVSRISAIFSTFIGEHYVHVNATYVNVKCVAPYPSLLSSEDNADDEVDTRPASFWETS

[2] = Inhibition of GST-tagged VEGFR expressed in Sf9 cells
[3] = biological target: T1, Hepatocyte growth factor receptor; test: Inhibition of TPR-Met assessed as autophosphorylation
Target sequence in this assay (P08581 25-1390 limits assumed): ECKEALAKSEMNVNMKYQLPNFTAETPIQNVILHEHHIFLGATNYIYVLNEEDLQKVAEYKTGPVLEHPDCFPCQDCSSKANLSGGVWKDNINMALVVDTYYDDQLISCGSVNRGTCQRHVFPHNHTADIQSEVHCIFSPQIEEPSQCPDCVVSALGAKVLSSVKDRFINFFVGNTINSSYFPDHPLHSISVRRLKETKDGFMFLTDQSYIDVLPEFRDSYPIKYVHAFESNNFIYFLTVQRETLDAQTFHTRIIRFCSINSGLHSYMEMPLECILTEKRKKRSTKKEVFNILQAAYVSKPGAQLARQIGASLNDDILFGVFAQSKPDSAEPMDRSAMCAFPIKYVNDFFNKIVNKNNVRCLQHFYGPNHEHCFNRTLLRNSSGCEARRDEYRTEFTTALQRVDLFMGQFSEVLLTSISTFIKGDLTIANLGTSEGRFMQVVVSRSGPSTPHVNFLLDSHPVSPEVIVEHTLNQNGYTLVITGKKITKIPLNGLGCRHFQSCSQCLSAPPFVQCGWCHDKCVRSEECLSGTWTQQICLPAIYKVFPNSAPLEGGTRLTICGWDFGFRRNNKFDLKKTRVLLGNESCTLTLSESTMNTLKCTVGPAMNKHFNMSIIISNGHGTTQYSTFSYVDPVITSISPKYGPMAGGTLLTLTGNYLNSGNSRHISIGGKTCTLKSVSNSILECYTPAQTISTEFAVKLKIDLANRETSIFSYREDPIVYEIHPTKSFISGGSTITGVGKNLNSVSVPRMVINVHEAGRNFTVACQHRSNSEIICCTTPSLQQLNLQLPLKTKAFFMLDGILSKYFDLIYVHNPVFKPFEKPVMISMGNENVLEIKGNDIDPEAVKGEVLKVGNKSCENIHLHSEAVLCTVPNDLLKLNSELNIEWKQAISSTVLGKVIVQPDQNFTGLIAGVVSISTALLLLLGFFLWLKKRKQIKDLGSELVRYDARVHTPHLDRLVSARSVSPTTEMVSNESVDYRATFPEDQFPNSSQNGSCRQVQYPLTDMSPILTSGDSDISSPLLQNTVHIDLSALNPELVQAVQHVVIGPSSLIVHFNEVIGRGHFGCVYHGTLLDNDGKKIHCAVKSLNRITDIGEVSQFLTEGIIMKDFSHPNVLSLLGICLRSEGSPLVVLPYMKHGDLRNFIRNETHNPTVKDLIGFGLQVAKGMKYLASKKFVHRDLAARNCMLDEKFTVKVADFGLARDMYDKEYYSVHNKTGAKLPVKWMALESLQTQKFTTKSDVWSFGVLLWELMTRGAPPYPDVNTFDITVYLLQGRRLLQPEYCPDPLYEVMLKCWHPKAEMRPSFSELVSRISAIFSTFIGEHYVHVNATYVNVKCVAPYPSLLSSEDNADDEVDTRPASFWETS

[4] = Inhibition of VEGF-induced ERK phosphorylation in HUVEC; assay type: cell-based; settings: Homo sapiens
[5] = biological target: Inhibitor of nuclear factor kappa-B kinase subunit beta (Homo sapiens) (UniProt O14920); test: Inhibition of IKK-beta at 100 uM
[6] = biological target: Receptor-type tyrosine-protein kinase FLT3 (Homo sapiens) (UniProt P36888); test: Inhibition of Flt3 at 100 uM
[7] = biological target: Vascular endothelial growth factor receptor 3 (Homo sapiens) (UniProt P35916); test: Inhibition of VEGFR3 at 100 uM
[8] = Bioavailability in rat; assay type: ADME, organism-based; settings: in vivo
[9] = biological target: Serine/threonine-protein kinase Chk1 (Homo sapiens) (UniProt O14757); test: Inhibition of CHK1 at 100 uM
[10] = biological target: Platelet-derived growth factor receptor alpha (Homo sapiens) (UniProt P16234); test: Inhibition of PDGFRalpha at 100 uM
[11] = biological target: Aurora kinase A (Homo sapiens) (UniProt O14965); test: Inhibition of Aurora A at 100 uM
[12] = biological target: Mast/stem cell growth factor receptor Kit (Homo sapiens) (UniProt P10721); test: Inhibition of c-kit at 100 uM
[13] = biological target: Proto-oncogene tyrosine-protein kinase Src (Homo sapiens) (UniProt P12931); test: Inhibition of c-SRC at 100 uM
[14] = biological target: Serine/threonine-protein kinase Chk2 (Homo sapiens) (UniProt O96017); test: Inhibition of CHK2 at 100 uM
[15] = test system: HUVEC; test: Antiangiogenic activity against HUVEC cell assessed as inhibition of tubule formation; assay type: functional, cell-based; settings: Homo sapiens
[16] = biological target: Vascular endothelial growth factor receptor 1 (Homo sapiens) (UniProt P17948); test: Inhibition of VEGFR1 at 100 uM
[17] = biological target: Epidermal growth factor receptor (Homo sapiens) (UniProt P00533); test: Inhibition of EGFR at 100 uM
[18] = biological target: Fibroblast growth factor receptor 1 (Homo sapiens) (UniProt P11362); test: Inhibition of FGFR1 at 100 uM
[19] = biological target: Dual specificity mitogen-activated protein kinase kinase 1 (Homo sapiens) (UniProt Q02750); test: Inhibition of MEK1 at 100 uM
[20] = test system: HCT-116; test: Antiproliferative activity against human HCT116 cells after 72 hrs by MTT assay; assay type: functional, cell-based; settings: HCT-116, 72 h
[21] = test system: HUVEC; test: Inhibition of VEGF-stimulated proliferation of HUVEC cells; assay type: functional, cell-based; settings: Homo sapiens
[22] = biological target: ALK tyrosine kinase receptor (Homo sapiens) (UniProt Q9UM73); test: Inhibition of ALK at 100 uM
[23] = biological target: Cyclin-dependent kinase 2/cyclin E (Homo sapiens) (UniProt P24864+P24941+O96020); test: Inhibition of CDK2/cyclin E at 100 uM; assay type: protein-complex assay
[24] = biological target: Proto-oncogene tyrosine-protein kinase receptor Ret (Homo sapiens) (UniProt P07949); test: Inhibition of Ret at 100 uM
[25] = biological target: High affinity nerve growth factor receptor (Homo sapiens) (UniProt P04629); test: Inhibition of TrkA at 100 uM
[26] = test system: MKN-45; test: Antiproliferative activity against human MKN45 cells after 72 hrs by MTT assay; assay type: functional, cell-based; settings: MKN-45, 72 h
[27] = biological target: RAC-alpha serine/threonine-protein kinase (Homo sapiens) (UniProt P31749); test: Inhibition of PKBalpha at 100 uM
[28] = biological target: T1, Hepatocyte growth factor receptor; test: Inhibition of Met at 100 uM
Target sequence in this assay (P08581 whole entry): as the sequence (P08581 whole entry) above

[29] = biological target: Glycogen synthase kinase-3 beta (Homo sapiens) (UniProt P49841); test: Inhibition of GSK3-beta at 100 uM
[30] = biological target: Vascular endothelial growth factor receptor 2 (Homo sapiens) (UniProt P35968); test: Inhibition of VEGFR2 at 100 uM
[31] = biological target: Angiopoietin-1 receptor (Homo sapiens) (UniProt Q02763); test: Inhibition of Tie-2 at 100 uM
[32] = biological target: Macrophage-stimulating protein receptor (Homo sapiens) (UniProt Q04912); test: Inhibition of Ron at 100 uM
[33] = test system: HMEC; test: Antiproliferative activity against human HMEC cells after 72 hrs by MTT assay; assay type: functional, cell-based
[34] = biological target: Tyrosine-protein kinase JAK3 (Homo sapiens) (UniProt P52333); test: Inhibition of JAK3 at 100 uM
[35] = biological target: Tyrosine-protein kinase JAK2 (Homo sapiens) (UniProt O60674); test: Inhibition of JAK2 at 100 uM
[36] = Half life in rat; assay type: ADME, organism-based; settings: in vivo
[37] = test system: HOS-TE85; test: Antitumor activity against human MNNG-HOS cell xenografted mouse assessed as tumor regression at 40 mg/kg, po after 12 days; assay type: functional, organism-based; parameters: dose 40 mg/kg
[38] = test system: HUVEC; test: Antiangiogenic activity against HUVEC cell assessed as inhibition of VEGF-dependent tubule formation; assay type: functional, Homo sapiens
[39] = biological target: Platelet-derived growth factor receptor beta (Homo sapiens) (UniProt P09619); test: Inhibition of PDGFRbeta at 100 uM
[40] = biological target: RAF proto-oncogene serine/threonine-protein kinase (Homo sapiens) (UniProt P04049); test: Inhibition of c-Raf at 100 uM
Sequence of RAF proto-oncogene serine/threonine-protein kinase (Homo sapiens) (P04049 whole entry): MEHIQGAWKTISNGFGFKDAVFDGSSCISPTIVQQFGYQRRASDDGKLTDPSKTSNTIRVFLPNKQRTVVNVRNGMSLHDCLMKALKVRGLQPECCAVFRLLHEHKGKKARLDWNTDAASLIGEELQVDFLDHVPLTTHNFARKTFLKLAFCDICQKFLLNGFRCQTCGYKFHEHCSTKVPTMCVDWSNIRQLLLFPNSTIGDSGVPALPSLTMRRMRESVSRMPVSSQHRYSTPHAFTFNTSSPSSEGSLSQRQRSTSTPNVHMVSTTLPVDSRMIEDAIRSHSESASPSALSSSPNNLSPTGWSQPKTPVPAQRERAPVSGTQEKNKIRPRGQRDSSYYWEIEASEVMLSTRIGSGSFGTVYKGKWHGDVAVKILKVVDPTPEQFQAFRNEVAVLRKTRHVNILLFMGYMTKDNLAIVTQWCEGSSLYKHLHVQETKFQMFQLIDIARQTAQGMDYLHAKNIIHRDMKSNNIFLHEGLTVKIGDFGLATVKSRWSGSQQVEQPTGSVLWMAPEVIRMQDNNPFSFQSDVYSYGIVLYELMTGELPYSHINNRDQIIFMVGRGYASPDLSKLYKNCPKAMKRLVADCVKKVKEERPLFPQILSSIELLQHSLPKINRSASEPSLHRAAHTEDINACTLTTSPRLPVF

Sequence of Serine/threonine-protein kinase Chk1 (Homo sapiens) (O14757 whole entry): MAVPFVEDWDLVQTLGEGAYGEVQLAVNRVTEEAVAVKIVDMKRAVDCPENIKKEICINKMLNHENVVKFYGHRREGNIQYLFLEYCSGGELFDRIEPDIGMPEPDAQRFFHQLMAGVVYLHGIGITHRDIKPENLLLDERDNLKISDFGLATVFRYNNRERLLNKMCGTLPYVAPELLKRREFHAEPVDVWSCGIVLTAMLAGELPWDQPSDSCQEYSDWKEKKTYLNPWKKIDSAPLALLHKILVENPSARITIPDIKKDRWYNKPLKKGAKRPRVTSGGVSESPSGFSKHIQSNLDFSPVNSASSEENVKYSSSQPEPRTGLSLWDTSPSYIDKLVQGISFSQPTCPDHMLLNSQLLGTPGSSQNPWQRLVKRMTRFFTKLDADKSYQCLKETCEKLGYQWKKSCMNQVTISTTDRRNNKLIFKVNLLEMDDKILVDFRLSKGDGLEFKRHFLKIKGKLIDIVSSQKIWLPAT
Sequence of Glycogen synthase kinase-3 beta (Homo sapiens) (P49841 whole entry, looked up): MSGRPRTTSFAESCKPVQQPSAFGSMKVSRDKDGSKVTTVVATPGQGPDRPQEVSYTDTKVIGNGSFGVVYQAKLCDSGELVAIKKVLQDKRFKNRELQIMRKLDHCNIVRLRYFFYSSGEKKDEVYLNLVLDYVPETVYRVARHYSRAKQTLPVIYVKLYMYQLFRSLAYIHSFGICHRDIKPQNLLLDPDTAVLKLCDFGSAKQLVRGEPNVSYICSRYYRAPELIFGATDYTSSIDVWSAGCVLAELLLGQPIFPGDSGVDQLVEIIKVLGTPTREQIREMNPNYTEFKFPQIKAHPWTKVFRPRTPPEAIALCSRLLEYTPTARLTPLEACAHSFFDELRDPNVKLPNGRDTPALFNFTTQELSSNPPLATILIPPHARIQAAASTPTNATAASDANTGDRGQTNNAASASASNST
Sequence of Inhibitor of nuclear factor kappa-B kinase subunit beta (Homo sapiens) (O14920 whole entry): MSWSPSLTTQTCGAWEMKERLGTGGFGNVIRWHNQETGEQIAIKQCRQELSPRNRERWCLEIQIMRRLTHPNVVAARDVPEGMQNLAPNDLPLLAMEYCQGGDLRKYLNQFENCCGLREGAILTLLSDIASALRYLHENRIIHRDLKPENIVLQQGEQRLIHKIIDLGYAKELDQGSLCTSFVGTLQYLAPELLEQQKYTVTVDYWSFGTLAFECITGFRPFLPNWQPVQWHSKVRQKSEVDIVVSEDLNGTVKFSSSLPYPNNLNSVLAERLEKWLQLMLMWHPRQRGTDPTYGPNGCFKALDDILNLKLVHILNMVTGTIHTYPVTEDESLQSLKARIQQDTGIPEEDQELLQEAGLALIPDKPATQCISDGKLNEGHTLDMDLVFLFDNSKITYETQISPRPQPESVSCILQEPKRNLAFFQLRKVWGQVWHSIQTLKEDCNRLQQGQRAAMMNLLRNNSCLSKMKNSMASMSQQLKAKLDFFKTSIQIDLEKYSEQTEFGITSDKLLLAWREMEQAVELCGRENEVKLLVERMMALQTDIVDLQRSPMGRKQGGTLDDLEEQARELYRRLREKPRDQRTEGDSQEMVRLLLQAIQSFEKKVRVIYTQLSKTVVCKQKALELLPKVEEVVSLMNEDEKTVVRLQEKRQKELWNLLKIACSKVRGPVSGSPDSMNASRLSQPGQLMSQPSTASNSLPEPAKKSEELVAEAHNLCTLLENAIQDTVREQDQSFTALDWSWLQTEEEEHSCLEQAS

SMILES: COc1cc2nccc(Nc3ccc(NC(=O)N4CCN(c5ccccc5)C4=O)cc3F)c2cc1OC
IC50 [1]: 200 nM | IC50 [2]: 1400 nM | IC50 [3]: Not Active

SMILES: C=CCN1CCN(C(=O)Nc2ccc(Oc3ccnc4cc(OC)c(OC)cc34)c(F)c2)C1=O
IC50 [1]: 200 nM | IC50 [2]: 630 nM | IC50 [3]: Not Active

SMILES: COc1cc2nccc(Oc3ccc(NC(=O)N4CCN(c5ccc(F)cc5)C4=O)cc3F)c2cc1OCCCN1CCOCC1
IC50 [1]: 40 nM | IC50 [2]: 120 nM | IC50 ([3]; read-out: IC50): 30 nM

SMILES: COc1cc2ncnc(Nc3ccc(NC(=O)N4CCN(c5ccccc5)C4=O)cc3F)c2cc1OC
IC50 [1]: 600 nM | IC50 [2]: > 2000 nM | IC50 ([3]; read-out: IC50): 3300 nM

SMILES: COc1cc2nccc(Oc3ccc(NC(=O)N4CCN(N5CCCCC5)C4=O)cc3F)c2cc1OC
IC50 [1]: 60 nM | IC50 [2]: 370 nM | IC50 ([3]; read-out: IC50): 640 nM

SMILES: COc1cc2nccc(Oc3ccc(NC(=O)N4CCN(c5ccccc5)C4=O)c(F)c3)c2cc1OC
IC50 [1]: 30 nM | IC50 [2]: 50 nM | IC50 ([3]; read-out: IC50): > 10000 nM

SMILES: COc1cc2nccc(Sc3ccc(NC(=O)N4CCN(c5ccc(F)cc5)C4=O)cc3)c2cc1OC
IC50 [1]: 40 nM | IC50 [2]: 100 nM | IC50 ([3]; read-out: IC50): 80 nM

SMILES: COc1cc2nccc(Oc3ccc(NC(=O)N4CCN(c5ccccc5)C4=O)cn3)c2cc1OC
IC50 [1]: 60 nM | IC50 [2]: 1300 nM | IC50 ([3]; read-out: IC50): 5000 nM

SMILES: COc1cc2nccc(Oc3ccc(NC(=S)NC(=O)Cc4ccccc4)cc3F)c2cc1OC
IC50 [2]: 32 nM

SMILES: COc1cc2nccc(Oc3ccc(NC(=O)N4CCN(c5ccccn5)C4=O)cc3F)c2cc1OC
IC50 [1]: 40 nM | IC50 [2]: 230 nM | IC50 [3]: Not Active

SMILES: COCCOc1cc2nccc(Oc3ccc(NC(=O)N4CCN(c5ccccc5)C4=O)cc3F)c2cc1OCCOC
IC50 [1]: 60 nM | IC50 [2]: 40 nM | IC50 ([3]; read-out: IC50): 20 nM

SMILES: COc1cc2nccc(Oc3ccc(NC(=O)N4CCN(c5ccncc5)C4=O)cc3F)c2cc1OC
IC50 [1]: 100 nM | IC50 [2]: 600 nM | IC50 ([3]; read-out: IC50): 630 nM

SMILES: COc1cc2ncnc(N(C)c3ccc(NC(=O)N4CCN(c5ccccc5)C4=O)cc3F)c2cc1OC
IC50 [1]: 4000 nM | IC50 [2]: > 2000 nM | IC50 ([3]; read-out: IC50): > 10000 nM

SMILES: COc1cc2c(Oc3ccc(NC(=O)N4CCN(c5ccccc5)C4=O)cc3F)ccnc2cc1OCCCN1CCOCC1
IC50 [1]: 50 nM | IC50 [2]: 30 nM | IC50 ([3]; read-out: IC50): 50 nM

SMILES: COc1cc2nccc(Oc3ccc(NC(=O)N4CCN(C5CCCCC5)C4=O)cc3F)c2cc1OC
IC50 [1]: 110 nM | IC50 [2]: 210 nM | IC50 ([3]; read-out: IC50): 860 nM

SMILES: COc1cc2nccc(N(C)c3ccc(NC(=O)N4CCN(c5ccccc5)C4=O)cc3F)c2cc1OC
IC50 [1]: 400 nM | IC50 [2]: 5900 nM | IC50 [3]: Not Active

Continued by falling IC50 [2], values first:

IC50 [1]: 40 nM | IC50 [2]: 30 nM | IC50 ([3]; read-out: IC50): > 1000 nM
SMILES: COc1cc2ncnc(Oc3ccc(NC(=O)N4CCN(c5ccccc5)C4=O)cc3F)c2cc1OC

IC50 [1]: 50 nM | IC50 [2]: 30 nM | IC50 ([3]; read-out: IC50): 240 nM
SMILES: COc1cc2nccc(Oc3ccc(NC(=O)N4CCN(c5ccccc5)C4=O)cc3)c2cc1OC

IC50 [1]: 50 nM | IC50 [2]: 30 nM | IC50 ([3]; read-out: IC50): 150 nM
SMILES: COc1cc2nccc(Oc3ccc(NC(=O)N4CCN(c5ccccc5OC)C4=O)cc3F)c2cc1OC

IC50 [1]: 50 nM | IC50 [2]: 30 nM | IC50 ([3]; read-out: IC50): 150 nM
SMILES: COc1cc2nccc(Oc3ccc(NC(=O)N4CCN(c5ccc(F)cc5)C4=O)cc3)c2cc1OC

IC50 [2]: 26 nM
SMILES: Cn1cnc(-c2cc3nccc(Oc4ccc(NC(=S)NC(=O)Cc5ccccc5)cc4F)c3s2)c1

IC50 [1]: 50 nM | IC50 [2]: 20 nM | IC50 ([3]; read-out: IC50): 130 nM
SMILES: COc1cc2c(Oc3ccc(NC(=O)N4CCN(c5ccccc5)C4=O)cc3F)ccnc2cc1OCC1CCN(C)CC1

IC50 [1]: 40 nM | IC50 [2]: 20 nM | IC50 ([3]; read-out: IC50): 80 nM
SMILES: COc1cc2c(Oc3ccc(NC(=O)N4CCN(c5ccccc5)C4=O)cc3F)ccnc2cc1OCC1CCNCC1

IC50 [1]: 30 nM | IC50 [2]: 20 nM | IC50 ([3]; read-out: IC50): > 10000 nM
SMILES: COc1cc2nccc(Oc3ccc(NC(=O)N4CCN(c5ccccc5)C4=O)nc3)c2cc1OC

IC50 [1]: 30 nM | IC50 [2]: 20 nM | IC50 ([3]; read-out: IC50): 90 nM
SMILES: COc1cc2nccc(Oc3ccc(NC(=O)N4CCN(c5ccc(F)cc5)C4=O)cc3F)c2cc1OC

IC50 [1]: 60 nM | IC50 [2]: 20 nM | IC50 ([3]; read-out: IC50): 370 nM
SMILES: COc1cc2nccc(Oc3ccc(NC(=O)N4CCN(c5ccccc5F)C4=O)cc3F)c2cc1OC

IC50 [1]: 50 nM | IC50 [2]: 15 nM | IC50 ([3]; read-out: IC50): 200 nM
SMILES: COc1cc2nccc(Oc3ccc(NC(=O)N4CCN(c5cccc(F)c5)C4=O)cc3F)c2cc1OC

IC50 [4]: < 1 nM | inhibition [5]: 0% | inhibition [6]: 72% | inhibition [7]: 93% | bioavailability [8]: 22% | inhibition [9]: 0% | inhibition [10]: 26% | inhibition [11]: 0% | inhibition [12]: 12% | inhibition [13]: 7% | inhibition [14]: 1% | inhibition [16]: 100% | inhibition [17]: 0% | inhibition [18]: 11% | inhibition [19]: 0% | IC50 [20]: 300 nM | inhibition [22]: 0% | inhibition [23]: 0% | inhibition [24]: 96% | inhibition [25]: 94% | IC50 [26]: 8 nM | inhibition [27]: 0% | inhibition [28]: 100% | inhibition [29]: 0% | inhibition [30]: 92% | inhibition [31]: 23% | inhibition [32]: 92% | inhibition [34]: 6% | inhibition [35]: 4% | half-life [36]: 264 min | IC50 [2]: 10 nM | inhibition [39]: 6% | IC50 ([3]; read-out: IC50): 90 nM | inhibition [40]: 42%
SMILES: COc1cc2nccc(Oc3ccc(NC(=O)N4CCN(c5ccccc5)C4=O)cc3F)c2cc1OC
IC50 [15]: 8 nM | IC50 [21]: 2 nM | IC50 [33]: > 2500 nM | Activity [37]: Active | inhibition (INH) [38]: 99.4%

IC50 [2]: 8 nM
SMILES: Cn1cnc(-c2cc3nccc(Oc4ccc(NC(=O)N5CCN(c6ccccc6)C5=O)cc4F)c3s2)c1
